Reference: article PMC8162404, “Proteomimetic surface fragments distinguish targets by function” (Chemical Science, 2020)
pKd: −log10 of the molar value.

What was measured:
S100B [1] = biological target: T1, S100B (Homo sapiens, UniProt P04271); experiment: Pull-down assay with immobilized protein and LSM libraries; format: binding; settings: for pKd: H14 library, 1:1 binding assumed, read-out: Surface mapping KD (apparent); for Affinity class of probe (high, medium, low) in pull-down: H14 probes selected for validation
T1 construct: made in house; host or cells: Escherichia coli BL21(DE3)
T1 sequence (P04271 1-92): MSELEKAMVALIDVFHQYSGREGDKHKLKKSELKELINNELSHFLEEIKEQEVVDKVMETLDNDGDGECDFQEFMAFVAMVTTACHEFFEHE
Summary of the method: (§1)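 Buffers were HEPES pH 7.4 with 150 mM NaCl, plus 1 mM TCEP and 1 mM CaCl2 (50 mM HEPES) for S100A4 and S100B, 1 mM TCEP for Gal-1, and no additive for RecQ-WH. Immobilized protein at 64 µM was equilibrated 30 min with the LSM sublibrary, and unbound probes were measured by LC-MS.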

S100A4 [2] = biological target: T2, S100A4 (Homo sapiens, UniProt P26447); experiment: as above; format: binding; settings: for pKd: H14 library, 1:1 binding assumed, read-out: Surface mapping KD (apparent); for Affinity class of probe (high, medium, low) in pull-down: H14 probes selected for validation
T2 construct: made in house; host or cells: Escherichia coli BL21(DE3)
T2 sequence (P26447 whole entry): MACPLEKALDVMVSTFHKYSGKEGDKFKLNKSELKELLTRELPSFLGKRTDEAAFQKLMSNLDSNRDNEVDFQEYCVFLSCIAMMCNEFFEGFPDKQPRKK
Summary of the method: as §1

Gal-1 [3] = biological target: T3, Gal-1 (Homo sapiens, UniProt P09382); experiment: as above; format: binding; settings: H14 library; 1:1 binding assumed; read-out: Surface mapping KD (apparent)
T3 construct: made in house; host or cells: E. coli BL21(DE3)
T3 sequence (P09382 whole entry): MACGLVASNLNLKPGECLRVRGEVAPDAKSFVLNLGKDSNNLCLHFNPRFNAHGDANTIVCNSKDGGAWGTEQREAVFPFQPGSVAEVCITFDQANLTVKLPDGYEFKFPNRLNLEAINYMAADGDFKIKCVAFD
Summary of the method: (§2)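 His-tagged protein immobilized on Co-NTA resin (64 µM) in 20 mM HEPES pH 7.4, 150 mM NaCl, equilibrated 30 min at room temperature with foldamer LSM sublibraries at equimolar total concentration. Unbound fractions quantified by HPLC-MS versus protein-free resin control; apparent KD assumes 1:1 binding.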

S100B [4] = biological target: T1, S100B; experiment: Competition pull-down with native ligand RSK1 (689–735); format: binding; settings: H14 library; competitor peptide 200 µM; read-out: Surface mapping KD (apparent), competition
S100A4 [5] = biological target: T2, S100A4; experiment: Competition pull-down with native ligand NMIIA (1893–1923); format: binding; settings: H14 library; competitor peptide 200 µM; read-out: Surface mapping KD (apparent), competition
CaM [6] = biological target: T4, CaM (Bos taurus, UniProt P62157); experiment: Pull-down assay with immobilized protein and LSM libraries; format: binding, bovine; settings: H14 library; 1:2 stoichiometry assumed; read-out: Surface mapping KD (apparent)
T4 construct: made in house; host or cells: E. coli BL21 (DE3)
Summary of the method: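 His-tagged protein immobilized on Co-NTA resin, equilibrated 30 min at room temperature with LSM sublibraries (64 members, […]), equimolar protein to total probe. CaM buffer: 20 mM HEPES pH 7.4, 150 mM NaCl, 5 mM CaCl2. Bound fractions from HPLC-MS loss of unbound probe versus protein-free resin control; Kd derived.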

RecQ-WH [7] = biological target: T5, RecQ-WH (Escherichia coli, UniProt P15043); experiment: as above; design: species or system E. coli; settings: H14 library; 1:1 binding assumed; read-out: Surface mapping KD (apparent)
T5 construct: coding for residues 408– 523 of E. coli RecQ; made in house; host or cells: E. coli BL21(DE3)
T5 sequence (P15043 408-523): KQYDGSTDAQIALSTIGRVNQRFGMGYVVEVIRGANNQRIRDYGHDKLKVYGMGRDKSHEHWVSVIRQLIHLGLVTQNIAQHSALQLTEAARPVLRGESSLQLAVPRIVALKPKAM
Summary of the method: as §2

Gal-1 [8] = biological target: T3, Gal-1; experiment: Competition pull-down with lactose; format: binding; settings: H14 library; lactose 10 mM; read-out: Surface mapping KD (apparent), competition
Summary of the method: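 His6-tagged proteins immobilized on Co-NTA resin at 64 µM final with 64-member LSM foldamer sublibraries (1 M each, as printed) in pH 7.4 HEPES/NaCl buffers (Ca2+/TCEP per target), 30 min RT; competitor peptides 200 µM final, lactose 10 mM for Gal-1. Bound fractions from LC-MS loss vs protein-free resin; KD assuming 1:1 binding.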

CaM [9] = biological target: T4, CaM; experiment: Competition pull-down with native ligand TRPV1-Ct15; format: binding, bovine; settings: H14 library; competitor peptide 200 µM; read-out: Surface mapping KD (apparent), competition
RecQ-WH [10] = biological target: T5, RecQ-WH; experiment: Competition pull-down with native ligand SSB-Ct8; format: binding, E. coli; settings: H14 library; competitor peptide 200 µM; read-out: Surface mapping KD (apparent), competition

Row | Binding (S100B [1]; H14 probes) | Binding (S100A4 [2]; H14 probes) | Structure (SMILES) | pKd (S100B [1]) | pKd (S100A4 [2]) | pKd (Gal-1 [3]) | pKd (S100B [4]) | pKd (S100A4 [5]) | pKd (CaM [6]) | pKd (RecQ-WH [7]) | pKd (Gal-1 [8]) | pKd (CaM [9]) | Affinity class of probe (high, medium, low) in pull-down (S100B [1]) | Affinity class of probe (high, medium, low) in pull-down (S100A4 [2]) | pKd (RecQ-WH [10])
1 | – | – | CSCC[C@@H](CC(=O)N[C@H]1CCCC[C@@H]1C(=O)N[C@H]1CCCC[C@@H]1C(=O)N[C@H](CC(=O)N[C@H]1CCCC[C@@H]1C(N)=O)CC(C)C)NC(=O)[C@H]1CCCC[C@@H]1N [H14 ML] | 4.21 | 4.96 | 3.84 | 3.57 | 3.35 | 5.52 | 3.65 | 3.63 | 3.36 | – | – | –
2 | – | – | N=C(N)NCCC[C@@H](CC(=O)N[C@H]1CCCC[C@@H]1C(=O)N[C@H]1CCCC[C@@H]1C(=O)N[C@H](CC(=O)N[C@H]1CCCC[C@@H]1C(N)=O)Cc1ccc(O)cc1)NC(=O)[C@H]1CCCC[C@@H]1N [H14 RY] | 4.40 | 3.95 | – | – | 3.49 | 4.80 | – | – | – | – | – | –
3 | does not | binds | CC[C@H](C)[C@@H](CC(=O)N[C@H]1CCCC[C@@H]1C(N)=O)NC(=O)[C@H]1CCCC[C@@H]1NC(=O)[C@H]1CCCC[C@@H]1NC(=O)C[C@@H](NC(=O)[C@H]1CCCC[C@@H]1N)[C@@H](C)O [H14 TI] | 3.74 | 5.15 | 3.76 | – | 3.33 | 4.16 | – | 3.58 | – | low | high | –
4 | – | – | CC(C)C[C@@H](CC(=O)N[C@H]1CCCC[C@@H]1C(N)=O)NC(=O)[C@H]1CCCC[C@@H]1NC(=O)[C@H]1CCCC[C@@H]1NC(=O)C[C@@H](NC(=O)[C@H]1CCCC[C@@H]1N)[C@@H](C)O [H14 TL] | 3.74 | 5.15 | 3.76 | – | 3.33 | 4.16 | – | 3.58 | – | – | – | –
5 | – | – | CC(C)[C@@H](CC(=O)N[C@H]1CCCC[C@@H]1C(=O)N[C@H]1CCCC[C@@H]1C(=O)N[C@H](CC(=O)N[C@H]1CCCC[C@@H]1C(N)=O)Cc1ccccc1)NC(=O)[C@H]1CCCC[C@@H]1N [H14 VF] | 4.70 | 5.52 | 4.03 | 4.04 | 3.32 | 5.30 | 3.46 | 3.71 | 3.62 | – | – | –
6 | – | – | CC[C@H](C)[C@@H](CC(=O)N[C@H]1CCCC[C@@H]1C(N)=O)NC(=O)[C@H]1CCCC[C@@H]1NC(=O)[C@H]1CCCC[C@@H]1NC(=O)C[C@@H](NC(=O)[C@H]1CCCC[C@@H]1N)C(C)C [H14 VI] | 4.37 | 5.52 | 3.98 | 3.74 | 3.61 | 4.89 | 3.44 | 3.53 | – | – | – | –
7 | – | – | CC(C)C[C@@H](CC(=O)N[C@H]1CCCC[C@@H]1C(N)=O)NC(=O)[C@H]1CCCC[C@@H]1NC(=O)[C@H]1CCCC[C@@H]1NC(=O)C[C@@H](NC(=O)[C@H]1CCCC[C@@H]1N)C(C)C [H14 VL] | 4.37 | 5.52 | 4.18 | 3.74 | 3.61 | 4.89 | 3.44 | 3.66 | – | medium | high | –
8 | – | – | CC(C)[C@@H](CC(=O)N[C@H]1CCCC[C@@H]1C(N)=O)NC(=O)[C@H]1CCCC[C@@H]1NC(=O)[C@H]1CCCC[C@@H]1NC(=O)C[C@@H](NC(=O)[C@H]1CCCC[C@@H]1N)C(C)C [H14 VV] | 4.14 | 5.52 | 3.61 | 3.70 | 3.45 | 5.15 | – | – | – | – | – | –
9 | – | – | CC(C)[C@@H](CC(=O)N[C@H]1CCCC[C@@H]1C(N)=O)NC(=O)[C@H]1CCCC[C@@H]1NC(=O)[C@H]1CCCC[C@@H]1NC(=O)C[C@H](Cc1ccc(O)cc1)NC(=O)[C@H]1CCCC[C@@H]1N [H14 YV] | 3.95 | 4.64 | 3.85 | 3.43 | – | 5.70 | 3.67 | 3.65 | 3.35 | – | – | 3.33
